Test results published in patent publication US20170190671A1, “BIS(ARYL)CATECHOL DERIVATIVES AS HERBICIDES” (E I DU PONT DE NEMOURS AND COMPANY, priority 2014, published 2017).

Columns and labels:
Type in all cases: in vivo
[1] = system: pigweed (Amaranthus retroflexus); test: Test A postemergence; conditions: Amaranthus retroflexus, post-emergence, 240 h, 0 to 100 scale, read-out: Plant response rating, Pigweed
Outline: (§1)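 Visual injury scored 0–100 (100 = complete control) against untreated controls about 10 days after treatment in a greenhouse. Test chemicals, formulated with surfactant in non-phytotoxic solvent, were sprayed on soil preemergence or on 2-10 cm, one- to two-leaf plants postemergence.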

[2] = system: galium (catchweed bedstraw, Galium aparine); test: Test A postemergence; conditions: Galium, post-emergence, 240 h, 0 to 100 scale, read-out: Plant response rating, Galium
Outline: as §1

[3] = system: ragweed (common ragweed, Ambrosia elatior); test: Test A postemergence; conditions: Ambrosia artemisiifolia, post-emergence, 240 h, 0 to 100 scale, read-out: Plant response rating, Ragweed
Outline: as §1

[4] = system: corn (Zea mays); test: Test A postemergence; conditions: Zea mays, post-emergence, 240 h, 0 to 100 scale
Outline: as §1

[5] = system: blackgrass (Alopecurus myosuroides); test: Test A postemergence; conditions: Alopecurus myosuroides, post-emergence, 240 h, 0 to 100 scale, read-out: Plant response rating, Blackgrass
Outline: as §1

[6] = system: barnyardgrass (Echinochloa crus-galli); test: Test A postemergence; conditions: Echinochloa crus-galli, post-emergence, 240 h, 0 to 100 scale, read-out: Plant response rating, Barnyardgrass
Outline: as §1

[7] = system: Italian ryegrass (Lolium multiflorum); test: Test A postemergence; conditions: Lolium multiflorum, post-emergence, 240 h, 0 to 100 scale, read-out: Plant response rating, Ryegrass, Italian
Outline: as §1

[8] = system: wheat (Triticum aestivum); test: Test A postemergence; conditions: Triticum aestivum, post-emergence, 240 h, 0 to 100 scale, read-out: Plant response rating, Wheat
Outline: as §1

[9] = system: kochia (Kochia scoparia); test: Test A postemergence; conditions: Bassia scoparia, post-emergence, 240 h, 0 to 100 scale, read-out: Plant response rating, Kochia
Outline: as §1

[10] = system: giant foxtail (Setaria faberii); test: Test A postemergence; conditions: Setaria faberi, post-emergence, 240 h, 0 to 100 scale, read-out: Plant response rating, Foxtail, Giant
Outline: as §1

[11] = system: sedge, umbrella (small-flower umbrella sedge, Cyperus difformis); test: Test B flooded paddy; conditions: Cyperus difformis, 336 h; 250 g ai/ha, Flood, 13 to 15 days, scale 0 (no effect) to 100 (complete control); read-out: Plant response rating, Sedge, Umbrella
Outline: (§2)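 Compound was added to standing water 3 cm above soil, flood maintained, and plants held in a greenhouse before visual scoring against controls at 13 to 15 days.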

[12] = system: ducksalad (Heteranthera limosa); test: Test B flooded paddy; conditions: Heteranthera limosa, 336 h; 250 g ai/ha, Flood, 13 to 15 days, scale 0 (no effect) to 100 (complete control); read-out: Plant response rating, Ducksalad
Outline: as §2

[13] = system: rice (Oryza sativa); test: Test B flooded paddy; conditions: Oryza sativa, 336 h; 250 g ai/ha, Flood, 13 to 15 days, scale 0 (no effect) to 100 (complete control); read-out: Plant response rating, Rice
Outline: as §2

[14] = system: barnyardgrass (Echinochloa crus-galli); test: Test B flooded paddy; conditions: Echinochloa crus-galli, 336 h; 250 g ai/ha, Flood, 13 to 15 days, scale 0 (no effect) to 100 (complete control); read-out: Plant response rating, Barnyardgrass
Outline: as §2

[15] = system: pigweed (Amaranthus retroflexus); test: Test A preemergence; conditions: Amaranthus retroflexus, pre-emergence, 240 h
Outline: as §1

[16] = system: ragweed (common ragweed, Ambrosia elatior); test: Test A preemergence; conditions: Ambrosia artemisiifolia, pre-emergence, 240 h
Outline: as §1

[17] = system: barnyardgrass (Echinochloa crus-galli); test: Test A preemergence; conditions: Echinochloa crus-galli, pre-emergence, 240 h
Outline: as §1

[18] = system: Italian ryegrass (Lolium multiflorum); test: Test A preemergence; conditions: Lolium multiflorum, pre-emergence, 240 h
Outline: as §1

[19] = system: kochia (Kochia scoparia); test: Test A preemergence; conditions: Bassia scoparia, pre-emergence, 240 h
Outline: as §1

[20] = system: giant foxtail (Setaria faberii); test: Test A preemergence; conditions: Setaria faberi, pre-emergence, 240 h
Outline: as §1

SMILES: N#Cc1cccc(Oc2ncc(Cl)cn2)c1Oc1ccc(Cl)cn1 [Compound 16, 2-[(5-chloro-2-pyridinyl)oxy]-3-[(5-chloro-2-pyrimidinyl)oxy]benzonitrile]
- pest or weed control at 31 g/ha ([1]; 31 g ai/ha): 100%
- pest or weed control at 125 g/ha ([1]; 125 g ai/ha): 100%
- pest or weed control at 31 g/ha ([2]; 31 g ai/ha): 90%
- pest or weed control at 125 g/ha ([2]; 125 g ai/ha): 90%
- pest or weed control at 31 g/ha ([3]; 31 g ai/ha): 10%
- pest or weed control at 125 g/ha ([3]; 125 g ai/ha): 30%
- Corn plant response rating (crop injury, 0 = no effect, 100 = complete kill) at 31 g/ha ([4]; 31 g ai/ha): 0%
- Corn plant response rating (crop injury, 0 = no effect, 100 = complete kill) at 125 g/ha ([4]; 125 g ai/ha): 20%
- pest or weed control at 31 g/ha ([5]; 31 g ai/ha): 50%
- pest or weed control at 125 g/ha ([5]; 125 g ai/ha): 70%
- pest or weed control at 31 g/ha ([6]; 31 g ai/ha): 10%
- pest or weed control at 125 g/ha ([6]; 125 g ai/ha): 70%
- pest or weed control at 31 g/ha ([7]; 31 g ai/ha): 40%
- pest or weed control at 125 g/ha ([7]; 125 g ai/ha): 80%
- plant injury at 31 g/ha ([8]; 31 g ai/ha): 0%
- plant injury at 125 g/ha ([8]; 125 g ai/ha): 20%
- pest or weed control at 31 g/ha ([9]; 31 g ai/ha): 50%
- pest or weed control at 125 g/ha ([9]; 125 g ai/ha): 100%
- pest or weed control at 31 g/ha ([10]; 31 g ai/ha): 70%
- pest or weed control at 125 g/ha ([10]; 125 g ai/ha): 80%
- pest or weed control at 250 g/ha [11]: 95%
- pest or weed control at 250 g/ha [12]: 90%
- plant injury at 250 g/ha [13]: 40%
- pest or weed control at 250 g/ha [14]: 20%
- pest or weed control at 31 g/ha ([15]; 31 g ai/ha, 0 to 100 scale (0 no effect, 100 complete control), read-out: Pigweed plant response rating): 100%
- pest or weed control at 125 g/ha ([15]; 125 g ai/ha, 0 to 100 scale (0 no effect, 100 complete control), read-out: Pigweed plant response rating): 100%
- pest or weed control at 31 g/ha ([16]; 31 g ai/ha, 0 to 100 scale (0 no effect, 100 complete control), read-out: Ragweed plant response rating): 0%
- pest or weed control at 125 g/ha ([16]; 125 g ai/ha, 0 to 100 scale (0 no effect, 100 complete control), read-out: Ragweed plant response rating): 0%
- pest or weed control at 31 g/ha ([17]; 31 g ai/ha, 0 to 100 scale (0 no effect, 100 complete control), read-out: Barnyardgrass plant response rating): 30%
- pest or weed control at 125 g/ha ([17]; 125 g ai/ha, 0 to 100 scale, read-out: Plant response rating, Barnyardgrass): 70%
- pest or weed control at 31 g/ha ([18]; 31 g ai/ha, 0 to 100 scale (0 no effect, 100 complete control), read-out: Ryegrass, Italian plant response rating): 0%
- pest or weed control at 125 g/ha ([18]; 125 g ai/ha, 0 to 100 scale (0 no effect, 100 complete control), read-out: Ryegrass, Italian plant response rating): 20%
- pest or weed control at 31 g/ha ([19]; 31 g ai/ha, 0 to 100 scale (0 no effect, 100 complete control), read-out: Kochia plant response rating): 30%
- pest or weed control at 125 g/ha ([19]; 125 g ai/ha, 0 to 100 scale (0 no effect, 100 complete control), read-out: Kochia plant response rating): 90%
- pest or weed control at 31 g/ha ([20]; 31 g ai/ha, 0 to 100 scale (0 no effect, 100 complete control), read-out: Foxtail, Giant plant response rating): 90%
- pest or weed control at 125 g/ha ([20]; 125 g ai/ha, 0 to 100 scale (0 no effect, 100 complete control), read-out: Foxtail, Giant plant response rating): 100%

SMILES: Fc1cccc(Oc2ncc(Cl)cn2)c1Oc1ccc(Cl)nc1 [Compound 20]
- pest or weed control at 1000 g/ha ([1]; 1000 g ai/ha): 100%
- pest or weed control at 1000 g/ha ([2]; 1000 g ai/ha): 90%
- pest or weed control at 1000 g/ha ([3]; 1000 g ai/ha): 60%
- Corn plant response rating (crop injury, 0 = no effect, 100 = complete kill) at 1000 g/ha ([4]; 1000 g ai/ha): 50%
- pest or weed control at 1000 g/ha ([5]; 1000 g ai/ha): 60%
- pest or weed control at 1000 g/ha ([6]; 1000 g ai/ha, 0 no effect, 100 complete control): 90%
- pest or weed control at 1000 g/ha ([7]; 1000 g ai/ha): 40%
- plant injury at 1000 g/ha ([8]; 1000 g ai/ha): 50%
- pest or weed control at 1000 g/ha ([9]; 1000 g ai/ha): 90%
- pest or weed control at 1000 g/ha ([10]; 1000 g ai/ha): 90%
- pest or weed control at 250 g/ha [11]: 90%
- pest or weed control at 250 g/ha [12]: 95%
- plant injury at 250 g/ha [13]: 15%
- pest or weed control at 250 g/ha [14]: 20%
- pest or weed control at 1000 g/ha ([15]; 1000 g ai/ha, 0 to 100 scale, read-out: Plant response rating, Pigweed): 100%
- pest or weed control at 1000 g/ha ([16]; 1000 g ai/ha, 0 to 100 scale, read-out: Plant response rating, Ragweed): 40%
- pest or weed control at 1000 g/ha ([17]; 1000 g ai/ha, 0 to 100 scale, read-out: Plant response rating, Barnyardgrass): 100%
- pest or weed control at 1000 g/ha ([18]; 1000 g ai/ha, 0 to 100 scale, read-out: Plant response rating, Ryegrass, Italian): 70%
- pest or weed control at 1000 g/ha ([19]; 1000 g ai/ha, 0 to 100 scale, read-out: Plant response rating, Kochia): 90%
- pest or weed control at 1000 g/ha ([20]; 1000 g ai/ha, 0 to 100 scale, read-out: Plant response rating, Foxtail, Giant): 100%
